Where a name gives a salt, the structure may show the parent alone.
Each compound was assayed against recombinant human CCR5 receptor (Homo sapiens, UniProt P51681) (assay: MIP-1α radioligand binding assay (scintillation proximity)). Conditions: displacement of 0.1 nM iodinated MIP-1α; membranes from Chinese hamster ovary cells; average if tested more than once.
Procedure: The ability of compounds to inhibit the binding of MIP-1α was assessed by an in vitro radioligand binding assay. Membranes were prepared from Chinese hamster ovary cells which expressed the recombinant human CCR5 receptor. These membranes were incubated with 0.1 nM iodinated MIP-1α, scintillation proximity beads and various concentrations of the compounds of the invention in 96 well plates. The amount of iodinated MIP-1α bound to the receptor was determined by scintillation counting. Competition curves were obtained for compounds and the concentration of compound which displaced 50% of bound iodinated MIP-1α was calculated (IC50).
In Table II the results are presented as Pic50 values. A Pic50 value is the negative log (to base 10) of the IC50 result, so an IC50 of 1 μM (that is 1×10^−6M) gives a Pic50 of 6. If a compounds was tested more than once then the data below is an average of the probative tests results.

Chain of recombinant human CCR5 receptor (P51681 whole entry): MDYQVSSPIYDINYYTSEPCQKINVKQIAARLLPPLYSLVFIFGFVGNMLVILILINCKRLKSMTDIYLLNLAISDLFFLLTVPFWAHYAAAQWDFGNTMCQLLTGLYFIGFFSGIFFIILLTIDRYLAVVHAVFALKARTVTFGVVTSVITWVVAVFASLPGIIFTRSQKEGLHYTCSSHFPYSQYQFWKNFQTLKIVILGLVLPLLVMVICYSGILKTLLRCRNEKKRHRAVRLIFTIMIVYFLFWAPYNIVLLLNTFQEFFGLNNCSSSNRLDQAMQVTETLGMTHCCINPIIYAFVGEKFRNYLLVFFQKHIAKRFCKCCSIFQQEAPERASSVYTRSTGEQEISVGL

Row | SMILES | Pic50 | IC50
1 | CCN(C(=O)Cc1ccc(S(C)(=O)=O)cc1)C1CCN(CC[C@H](NC(=O)c2cnccc2C(F)(F)F)c2ccccc2)CC1.Cl | 7.32 | –
2 | CCN(C(=O)Cc1ccc(S(C)(=O)=O)cc1)C1CCN(CC[C@H](NC(=O)C2CCOC(C)(C)C2)c2ccccc2)CC1 (stereo partly drawn) [Compound No. 81, (s)-N-[1-(3-phenyl-3-[2,2-dimethyltetrahydropyran-4-yl-carboxyamino]propyl)-4-piperidinyl]-N-ethyl-4-methanesulfonylphenylacetamide] | 7.7 | –
3 | CCN(C(=O)Cc1ccc(S(C)(=O)=O)cc1)C1CCN(CC[C@H](NC(=O)N2CCSCC2)c2ccccc2)CC1 [Compound No. 83, (S)-N-[1-(3-phenyl-3-[thiomorpholin-4-ylcarboxyamino]propyl)-4-piperidinyl]-N-ethyl-4-methanesulfonylphenylacetamide] | 7.97 | –
4 | CCN(C(=O)Cc1ccc(S(C)(=O)=O)cc1)C1CCN(CC[C@H](NC(=O)C(F)F)c2ccccc2)CC1 [Compound No. 84, (S)-N-[1-(3-phenyl-3-difluoroacetylaminopropyl)-4-piperidinyl]-N-ethyl-4-methanesulfonylphenylacetamide hydrochloride] | – | 35.5 nM
5 | CCN(C(=O)Cc1ccc(S(C)(=O)=O)cc1)C1CCN(CC[C@H](NC(=O)CC(F)(F)F)c2ccccc2)CC1 [Compound No. 86, (S)-N-[1-(3-phenyl-3-[3,3,3-trifluoropropionylamino]propyl)-4-piperidinyl]-N-ethyl-4-methanesulfonylphenylacetamide hydrochloride] | – | 2 nM
6 | CCN(C(=O)Cc1ccc(S(C)(=O)=O)cc1)C1CCN(CC[C@H](NC(=O)N2CCS(=O)(=O)CC2)c2ccccc2)CC1 [Compound No. 91, (S)-N-[1-(3-phenyl-3-[1,1-dioxothiomorpholin-4-ylcarboxyamino]propyl)-4-piperidinyl]-N-ethyl-4-methanesulfonylphenylacetamide] | 7.52 | –
7 | CCN(C(=O)Cc1ccc(S(C)(=O)=O)cc1)C1CCN(CC[C@H](NC(=O)c2cccc(C#N)c2)c2ccccc2)CC1 [Compound No. 93, (S)-N-[1-(3-phenyl-3-[3-cyanobenzoylamino]propyl)-4-piperidinyl]-N-ethyl-4-methanesulfonylphenylacetamide] | – | 16.2 nM
8 | CCN(C(=O)Cc1ccc(S(C)(=O)=O)cc1)C1CCN(C(C)C[C@H](NC(=O)C2CCOCC2)c2ccccc2)CC1 (stereo partly drawn) [Compound No. 95, (3′S)-N-[1-(1-methyl-3-phenyl-3-[tetrahydropyran-4-yl-carboxyamino]propyl)-4-piperidinyl]-N-ethyl-4-methanesulfonylphenylacetamide] | – | 0.191 nM
9 | CCN(C(=O)Cc1ccc(S(C)(=O)=O)cc1)C1CCN(CC[C@H](NC(=O)CCC(F)(F)F)c2ccccc2)CC1 [Compound No. 96, (S)-N-[1-(3-phenyl-3-[4,4,4-trifluorobutyrylamino]propyl)-4-piperidinyl]-N-ethyl-4-methanesulfonylphenylacetamide hydrochloride] | – | 2.34 nM
10 | CCN(C(=O)Cc1ccc(S(C)(=O)=O)cc1)C1CCN(CC[C@H](NC(=O)c2ccccc2)c2cccc(F)c2)CC1 [Compound No. 103, (S)-N-{1-[3-benzoylamino-3-(3-fluorophenyl)propyl]piperidin-4-yl}-N-ethyl-2-(4-methanesulfonyl-phenyl)acetamide] | – | 0.437 nM
11 | CCN(C(=O)Cc1ccc(S(C)(=O)=O)cc1)C1CCN(CC[C@H](NC(=O)c2cccc(F)c2)c2cccc(F)c2)CC1 [Compound No. 104, (S)-N-{1-[3-(3-fluorobenzoylamino)-3-(3-fluorophenyl)propyl]piperidin-4-yl}-N-ethyl-2-(4-methanesulfonyl-phenyl)acetamide] | – | 0.447 nM
12 | CCN(C(=O)Cc1ccc(S(C)(=O)=O)cc1)C1CCN(CC[C@H](NC(=O)CC(C)(C)C)c2cccc(F)c2)CC1 [Compound No. 106, (S)-N-{1-[3-(3,3-dimethylbutyrylamino)-3-(3-fluorophenyl)propyl]piperidin-4-yl}-N-ethyl-2-(4-methanesulfonyl-phenyl)acetamide] | – | 0.562 nM
13 | CCN(C(=O)Cc1ccc(S(C)(=O)=O)cc1)C1CCN(CC[C@H](NC(=O)CC(F)(F)F)c2cccc(F)c2)CC1 [Compound No. 108, (S)-N-{1-[3-(3,3,3-trifluoropropionylamino)-3-(3-fluorophenyl)propyl]piperidinyl}-N-ethyl-2-(4-methanesulfonyl-phenyl)acetamide] | 8.02 | –
14 | CCN(C(=O)Cc1ccc(S(C)(=O)=O)cc1)C1CCN(CC[C@H](NC(=O)C2CCSCC2)c2ccccc2)CC1 [Compound No. 109, (S)-N-[1-(3-phenyl-3-[tetrahydrothiopyran-4-yl-carboxyamino]propyl)-4-piperidinyl]-N-ethyl-4-methanesulfonylphenylacetamide] | 9.27 | –
15 | CCN(C(=O)Cc1ccc(S(C)(=O)=O)cc1)C1CCN(CC[C@H](NC(=O)c2ccoc2)c2ccccc2)CC1 [compound 52] | – | 14.1 nM
16 | CCN(C(=O)Cc1ccc(S(C)(=O)=O)cc1)C1CCN(CC[C@H](NC(=O)c2ccc[nH]2)c2ccccc2)CC1 [compound 53] | – | 15.5 nM
17 | CCN(C(=O)Cc1ccc(S(C)(=O)=O)cc1)C1CCN(CC[C@H](NC(=O)c2csnn2)c2ccccc2)CC1 [compound 63] | – | 91.2 nM
18 | CCN(C(=O)Cc1ccc(S(C)(=O)=O)cc1)C1CCN(CC[C@H](NC(=O)c2ccno2)c2ccccc2)CC1 [compound 64] | – | 331 nM

Row | SMILES | Pic50 | IC50
19 | CCN(C(=O)Cc1ccc(S(C)(=O)=O)cc1)C1CCN(CC[C@H](NC(=O)c2ccc(NC(C)=O)nc2)c2ccccc2)CC1 [compound 68] | – | 66.1 nM
20 | CCN(C(=O)Cc1ccc(S(C)(=O)=O)cc1)C1CCN(CC[C@H](NC(=O)c2ccc(S(C)(=O)=O)s2)c2ccccc2)CC1 [compound 79] | – | 28.2 nM
21 | CCN(C(=O)Cc1ccc(S(C)(=O)=O)cc1)C1CCN(CC[C@H](NC(=O)c2cc(F)cc(F)c2)c2ccccc2)CC1 [compound 82] | – | 20 nM
22 | CCN(C(=O)Cc1ccc(S(C)(=O)=O)cc1)C1CCN(CC[C@H](NC(=O)C(C)CC(F)(F)F)c2ccccc2)CC1 (stereo partly drawn) [compound 87] | – | 16.2 nM
23 | CCN(C(=O)Cc1ccc(S(C)(=O)=O)cc1)C1CCN(CC[C@H](NC(=O)c2ccc(C(F)(F)F)o2)c2ccccc2)CC1 [compound 88] | – | 33.1 nM
24 | CCN(C(=O)Cc1ccc(S(C)(=O)=O)cc1)C1CCN(CC[C@H](NC(=O)c2ccc(=O)[nH]c2)c2ccccc2)CC1 [compound 89] | – | 57.5 nM
25 | CCN(C(=O)Cc1ccc(S(C)(=O)=O)cc1)C1CCN(CC[C@H](NC(=O)c2cnc[nH]2)c2ccccc2)CC1 [compound 90] | – | 245 nM
26 | CCN(C(=O)Cc1ccc(S(C)(=O)=O)cc1)C1CCN(CC[C@H](NC(=O)c2[nH]nnc2C(C)C)c2ccccc2)CC1 [compound 92] | – | 631 nM
27 | CCN(C(=O)Cc1ccc(S(C)(=O)=O)cc1)C1CCN(CC[C@H](NC(=O)c2ccc(C#N)cc2)c2ccccc2)CC1 [compound 94] | – | 27.5 nM
28 | CCN(C(=O)Cc1ccc(S(C)(=O)=O)cc1)C1CCN(CC[C@H](NC(=O)c2ccc(NC(C)=O)cc2)c2ccccc2)CC1 [compound 97] | – | 26.9 nM
29 | CCN(C(=O)Cc1ccc(S(C)(=O)=O)cc1)C1CCN(CC[C@H](NC(=O)c2cccc(S(C)(=O)=O)c2)c2ccccc2)CC1 [compound 98] | – | 14.5 nM
30 | CCN(C(=O)Cc1ccc(S(C)(=O)=O)cc1)C1CCN(CC[C@H](NC(=O)c2ccc(S(C)(=O)=O)cc2)c2ccccc2)CC1 [compound 99] | – | 40.7 nM
31 | CCN(C(=O)Cc1ccc(S(C)(=O)=O)cc1)C1CCN(CC[C@H](NC(=O)c2ccc(S(=O)(=O)NC)cc2)c2ccccc2)CC1 [compound 100] | – | 23.4 nM
32 | CCN(C(=O)Cc1ccc(S(C)(=O)=O)cc1)C1CCN(CC[C@H](NC(=O)c2ccc(NS(C)(=O)=O)cc2)c2ccccc2)CC1 [compound 101] | – | 4.68 nM
33 | CCN(C(=O)Cc1ccc(S(C)(=O)=O)cc1)C1CCN(CC[C@H](NC(=O)c2ccc(C(F)(F)F)cc2)c2ccccc2)CC1 [compound 102] | – | 9.55 nM
34 | CCN(C(=O)Cc1ccc(S(C)(=O)=O)cc1)C1CCN(CC[C@H](NC(=O)C2CCOCC2)c2cccc(F)c2)CC1 [compound 105] | – | 2.88 nM
35 | CCN(C(=O)Cc1ccc(S(C)(=O)=O)cc1)C1CCN(CC[C@H](NC(=O)N2CCCCC2)c2cccc(F)c2)CC1 [compound 107] | – | 0.933 nM
36 | CCN(C(=O)Cc1ccc(S(C)(=O)=O)cc1)C1CCN(CC[C@H](NC(=O)CC(C)(C)O)c2ccccc2)CC1 [compound 110] | – | 45.7 nM
